The record followed here is patent publication US20260159512A1, “BCAT2 INHIBITORS” (AGIOS PHARMACEUTICALS, INC., priority 2021, published 2026).

Values joined by “and” are separate entries in the source; they are usually repeats but may differ in a detail not shown here. Equal entries are not always repeated.

Common to all, as to settings: average where tested multiple times
The target in assay [1] is T1, hBCAT1 (Homo sapiens, UniProt P54687).
T1 sequence (P54687 1-386): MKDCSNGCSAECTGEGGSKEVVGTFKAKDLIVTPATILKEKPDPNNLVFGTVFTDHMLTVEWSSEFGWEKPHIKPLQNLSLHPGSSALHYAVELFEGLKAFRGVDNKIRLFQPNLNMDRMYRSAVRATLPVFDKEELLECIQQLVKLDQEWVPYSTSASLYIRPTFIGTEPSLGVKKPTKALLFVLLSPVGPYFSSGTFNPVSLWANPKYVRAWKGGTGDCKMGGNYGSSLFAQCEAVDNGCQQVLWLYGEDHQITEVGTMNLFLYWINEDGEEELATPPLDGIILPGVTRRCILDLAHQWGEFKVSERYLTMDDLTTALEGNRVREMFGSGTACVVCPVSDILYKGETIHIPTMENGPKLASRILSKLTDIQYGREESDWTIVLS
The assay can be described thus: BCAT1 in vitro enzyme inhibition assay (resazurin/diaphorase-coupled fluorescence). The class given is biochemical. The method, boiled down:
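Ten-point, 3-fold compound series (top final 100 μM, delivered 1:50 from 50× DMSO stocks) tested against hBCAT1. Inhibition detected via diaphorase-coupled resazurin fluorescence, duplicate wells, with values from repeated runs averaged.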

Assay [2] deals with T2, BCAT2 (Homo sapiens, UniProt O15382).
T2 sequence (O15382 28-392): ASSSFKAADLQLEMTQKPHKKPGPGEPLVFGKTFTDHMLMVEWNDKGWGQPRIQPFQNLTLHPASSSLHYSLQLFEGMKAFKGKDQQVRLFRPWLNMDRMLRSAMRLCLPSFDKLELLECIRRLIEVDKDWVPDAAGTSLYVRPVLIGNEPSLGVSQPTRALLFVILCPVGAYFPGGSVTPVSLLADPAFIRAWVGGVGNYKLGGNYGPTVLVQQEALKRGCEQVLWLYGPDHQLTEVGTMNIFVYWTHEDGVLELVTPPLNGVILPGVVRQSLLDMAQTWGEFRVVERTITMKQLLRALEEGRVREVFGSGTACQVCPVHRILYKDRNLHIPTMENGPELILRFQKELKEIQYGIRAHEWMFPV
The assay can be described thus: BCAT2 in vitro cell inhibition using engineered A549 cells (KMV cell assay, 13C6-KMV by LC-MS/MS). Further details: The result was an engineered A549 cell line that expressed endogenous BCAT2; endogenous in cells; host or cells: A549 cells with MUT and BCAT1 knocked out by CRISPR/CAS9. The class given is cell-based.

Assay [3] addresses T2, BCAT2. Kind of assay: BCAT2 in vitro enzyme inhibition assay (resazurin/diaphorase-coupled fluorescence). The class given is biochemical. In short, it runs like this:
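Coupled fluorescence readout: glutamate formed from L-leucine/α-ketoglutarate transamination drives GDH/NAD/diaphorase reduction of resazurin (Ex 540/Em 590). Human BCAT2 was first exposed 1 h at room temperature to compound, top final 100 μM in 3-fold, 10-point series; substrate reaction ran 1 h before SDS quench, in technical duplicate with DMSO max and enzyme-free min controls.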

In the case of `CC(=O)N1CC(NC(=O)c2ccc(Cl)s2)CC(n2c(CC(C)C)nc3cnc(-n4nccn4)cc32)C1` (stereo not drawn) [Example 131, N-(1-acetyl-5-(2-isobutyl-6-(2H-1,2,3-triazol-2-yl)-1H-imidazo[4,5-c]pyridin-1-yl)piperidin-3-yl)-5-chlorothiophene-2-carboxamide], the IC50 is under 500 nM in assay [1], 100 to 500 nM in assay [2] and at most 100 nM in assay [3].
With `CC(C)C(O)c1nc2cnc(-c3nc[nH]n3)cc2n1[C@@H]1CCC[C@H](NC(=O)c2ncc(Cl)s2)C1` (single isomer, unassigned) [Example 183], the IC50 is under 500 nM in assay [1], 100 to 500 nM in assay [2] and at most 100 nM in assay [3].
As for `CC(C)Cc1nc2cnc(-n3nccn3)cc2n1[C@@H]1CCC[C@H](NC(=O)c2ccc(Cl)s2)C1` [Example 74, 5-chloro-N-((1S,3R)-3-(2-isobutyl-6-(2H-1,2,3-triazol-2-yl)-1H-imidazo[4,5-c]pyridin-1-yl)cyclohexyl)thiophene-2-carboxamide], the IC50 in assay [1] was under 500 nM; in assay [2] it was at most 100 nM; in assay [3], at most 100 nM.
For the compound `CO[C@@H]1C[C@@H](NC(=O)c2ccc(Cl)s2)C[C@@H](n2c(-c3ccccc3F)nc3cnc(-c4nc[nH]n4)cc32)C1` (stereo in doubt) [Example 412, 5-chloro-N-((1S,3R,5R)-3-(2-(2-fluorophenyl)-6-(1H-1,2,4-triazol-3-yl)-1H-imidazo[4,5-c]pyridin-1-yl)-5-methoxycyclohexyl)thiophene-2-carboxamide], the IC50 was under 500 nM in assay [1], at most 100 nM in assay [2] and at most 100 nM in assay [3].
As for `O=C(N[C@H]1CCC[C@@H](n2c(-c3ccccc3O)nc3cnc(-c4nc[nH]n4)cc32)C1)c1ncc(Cl)s1` [Example 340, 5-chloro-N-((1S,3R)-3-(2-(2-hydroxyphenyl)-6-(1H-1,2,4-triazol-3-yl)-1H-imidazo[4,5-c]pyridin-1-yl)cyclohexyl)thiazole-2-carboxamide], the figures for the IC50 in assay [1], in assay [2] and in assay [3] were under 500 nM, at most 100 nM and at most 100 nM, respectively.
On to `CC(C)Cc1nc2cnc(-c3ncccn3)cc2n1C1CCCC(NC(=O)c2ncc(Cl)s2)C1O` (stereo not drawn) [Example 383, 5-chloro-N-(2-hydroxy-3-(2-isobutyl-6-(pyrimidin-2-yl)-1H-imidazo[4,5-c]pyridin-1-yl)cyclohexyl)thiazole-2-carboxamide], for which the IC50 is under 500 nM in assay [1], 100 to 500 nM in assay [2] and at most 100 nM in assay [3].
Taken in the same sequence, the figures for `O=C(NC1CCCC(n2c(-c3ccccn3)nc3cnc(-c4nnco4)cc32)C1)c1ccc(Br)s1` (stereo not drawn) [Example 1, N-(3-(6-(1,3,4-oxadiazol-2-yl)-2-(pyridin-2-yl)-1H-imidazo[4,5-c]pyridin-1-yl)cyclohexyl)-5-bromothiophene-2-carboxamide] were 1000 to 5000 nM, 100 to 500 nM and at most 100 nM.
Taken in the same sequence, the figures for `Cc1cnn(-c2cc3c(cn2)nc(CC(C)C)n3[C@@H]2CCC[C@H](NC(=O)c3ncc(Cl)s3)[C@H]2O)n1` [Example 243, 5-chloro-N-((1S,2R,3R)-2-hydroxy-3-(2-isobutyl-6-(4-methyl-2H-1,2,3-triazol-2-yl)-1H-imidazo[4,5-c]pyridin-1-yl)cyclohexyl)thiazole-2-carboxamide] were under 500 nM, at most 100 nM and at most 100 nM.
As to `CO[C@H]1C[C@@H](NC(=O)c2ncc(Cl)s2)C[C@@H](n2c(-c3ccccc3F)nc3cnc(-c4nc[nH]n4)cc32)C1` (stereo in doubt) [Example 420, 5-chloro-N-((1S,3R,5S)-3-(2-(2-fluorophenyl)-6-(1H-1,2,4-triazol-3-yl)-1H-imidazo[4,5-c]pyridin-1-yl)-5-methoxycyclohexyl)thiazole-2-carboxamide], the IC50 in assay [1] was under 500 nM; in assay [2], at most 100 nM; in assay [3], at most 100 nM.
With `O=C(N[C@H]1CCCC[C@@H](n2c(-c3ccccc3F)nc3cnc(-c4nc[nH]n4)cc32)[C@@H]1O)c1ccc(Cl)s1` [Example 405, 5-chloro-N-((1S,2R,3R)-3-(2-(2-fluorophenyl)-6-(1H-1,2,4-triazol-3-yl)-1H-imidazo[4,5-c]pyridin-1-yl)-2-hydroxycycloheptyl)thiophene-2-carboxamide], the figures for the IC50 in assay [1], in assay [2] and in assay [3] were under 500 nM, at most 100 nM and at most 100 nM, respectively.
As for `O=C(N[C@H]1C[C@H](O)C[C@@H](n2c(-c3ccccc3F)nc3cnc(-c4ncco4)cc32)C1)c1ncc(Cl)s1` [Example 260, 5-chloro-N-((1R,3S,5S)-3-(2-(2-fluorophenyl)-6-(oxazol-2-yl)-1H-imidazo[4,5-c]pyridin-1-yl)-5-hydroxycyclohexyl)thiazole-2-carboxamide], the IC50 in assay [1] was under 500 nM; in assay [2], at most 100 nM; in assay [3], at most 100 nM.
Turning to `Cc1cccnc1-c1nc2cnc(-n3nccn3)cc2n1[C@@H]1CCC[C@H](NC(=O)c2ncc(C(F)F)s2)C1` [Example 60, 5-(difluoromethyl)-N-((1S,3R)-3-(2-(3-methylpyridin-2-yl)-6-(2H-1,2,3-triazol-2-yl)-1H-imidazo[4,5-c]pyridin-1-yl)cyclohexyl)thiazole-2-carboxamide], the figures for the IC50 in assay [1], in assay [2] and in assay [3] were 500 to 1000 nM, 100 to 500 nM and at most 100 nM, respectively.
Take `CC(C)Cc1nc2cnc(-c3nc[nH]n3)cc2n1[C@@H]1CCC[C@H](NC(=O)c2ccc(Cl)s2)C1` [Example 317, 5-chloro-N-((1S,3R)-3-(2-isobutyl-6-(1H-1,2,4-triazol-3-yl)-1H-imidazo[4,5-c]pyridin-1-yl)cyclohexyl)thiophene-2-carboxamide]: the IC50 in assay [1] is under 500 nM; in assay [2], at most 100 nM; in assay [3], at most 100 nM.
As to `CO[C@H]1C[C@H](NC(=O)c2ncc(Cl)s2)C[C@H](n2c(CC(C)C)nc3cnc(-n4nccn4)cc32)C1` [Example 421, 5-chloro-N-((1R,3S,5S)-3-(2-isobutyl-6-(2H-1,2,3-triazol-2-yl)-1H-imidazo[4,5-c]pyridin-1-yl)-5-methoxycyclohexyl)thiazole-2-carboxamide], the IC50 was 500 to 1000 nM in assay [1], 100 to 500 nM in assay [2] and at most 100 nM in assay [3].
Regarding `Cn1ccc(-c2cc3c(cn2)nc(-c2ccccc2F)n3[C@@H]2CCC[C@H](NC(=O)c3ncc(Cl)s3)C2)n1` [Example 181, 5-chloro-N-((1S,3R)-3-(2-(2-fluorophenyl)-6-(1-methyl-1H-pyrazol-3-yl)-1H-imidazo[4,5-c]pyridin-1-yl)cyclohexyl)thiazole-2-carboxamide], the IC50 in assay [1] was under 500 nM; in assay [2] it was at most 100 nM; in assay [3], at most 100 nM.
Turning to `C#Cc1cnc(C(=O)N[C@H]2CCC[C@@H](n3c(-c4ncccc4F)nc4cnc(-n5cncn5)cc43)C2)s1` [Example 29, 5-ethynyl-N-((1S,3R)-3-(2-(3-fluoropyridin-2-yl)-6-(1H-1,2,4-triazol-1-yl)-1H-imidazo[4,5-c]pyridin-1-yl)cyclohexyl)thiazole-2-carboxamide], the IC50 in assay [1] is 500 to 1000 nM; in assay [2] it was 100 to 500 nM; in assay [3] it was at most 100 nM.
As for `O=C(N[C@H]1CCC[C@@H](n2c(-c3ccccn3)nc3cnc(-n4cncn4)cc32)C1)c1ccc(Br)s1` [Example 9, 5-bromo-N-((1S,3R)-3-(2-(pyridin-2-yl)-6-(1H-1,2,4-triazol-1-yl)-1H-imidazo[4,5-c]pyridin-1-yl)cyclohexyl)thiophene-2-carboxamide], the IC50 in assay [1] was 500 to 1000 nM; in assay [2], ≤ 100 nM and 100 to 500 nM; in assay [3], at most 100 nM.
